What was measured:
Format in all cases: in vivo, human
[1] = tested on: ceramide, chitotriosidase (CHITO), GM3, GPNMB in CSF; assay: Clinical study in GD-3 patients: exploratory CSF biomarkers
Method: (§1) During the study patients were evaluated for safety and tolerability, CSF and plasma biomarkers (glucosylceramide, GL-1; glucosylsphingosine, lyso-GL1), pharmacokinetics, markers for systemic disease (spleen and liver volume measured by magnetic resonance imaging (MRI), platelet count, hemoglobin levels), indicia of interstitial lung disease (high resolution pulmonary computed tomography (CT)), and horizontal saccadic eye movement. In addition, exploratory biomarkers were quantified in CSF of GD3 patients: ceramide (the precursor of GL-1), chitotriosidase (CHITO), GM3, and GPNMB. Symptoms of ataxia were measured using the SARA scale, neurological symptoms were measured using the trail making test, and functional MRI was used to assess neural connectivity in the brain.
In addition, exploratory biomarkers were quantified in CSF of GD3 patients: ceramide (the precursor of GL-1), chitotriosidase (CHITO; an enzyme known to be elevated in GD patients), GM3 (a glycosphingolipid marker known to be elevated in GD patients), and GPNMB (glycoprotein nonmetastatic melanoma protein B, reportedly a biomarker of neuropathic GD3).

[2] = tested on: adult patients with Gaucher disease Type 3; assay: Clinical study in GD-3 patients: vMRI brain tissue volume (TBM analysis); conditions: for Group A mean change in volume from Baseline to Week 52: Group A (eight patients), 15 mg/day + imiglucerase; for Patient 5 change in volume from Baseline to Week 52: Patient 5 (Compound 2 below LLOQ after 52 weeks)
Text: Neurological function was further evaluated using volumetric magnetic resonance imaging (vMRI). The vMRI data was collected at screening sessions at baseline and after 52 weeks of the treatment regime for eight patients (“Group A”) and an additional isolated patient (Patient 5). Group A corresponds to the eleven patients described above, excluding Patient 5 and two other patients lacking analyzable vMRI data.
vMRI data was obtained and subsequently analyzed using FreeSurfer anatomic parcellation and a Tensor-Based Morphometry (TBM) analysis cycle. FreeSurfer is an opensource software package for the analysis and visualization of structural and functional neuroimaging data developed by the Laboratory for Computational Neuroimaging. TBM analysis (also known as Jacobian Integration) consists in estimating the volume changes as captured within the deformation fields resulting from applying a symmetric deformable registration technique between a pair of MR scans (baseline and follow-up), using a non-linear symmetric log-demons deformation technique using robust cross-correlation metric to ensure invertibility of the transformation (symmetric process). The deformation field is then analyzed by computing the determinant of its Jacobian matrix, which is a measure of local volume change. An integration of the determinant over a region of interest provides an estimation of the change rate of the volume of this brain region over time.
The overall pipeline takes as input a baseline (BL) and a follow-up (FU) image and consists of the following steps: • 1. Preprocessing and reformatting; • 2. Segmentation of baseline (BL) and follow-up (FU) using FreeSurfer; • 3. Multi-resolution rigid and affine registration of FU and BL to midspace; • 4. Symmetric deformable nonlinear registration between FU and BL; • 5. Jacobian image computation; • 6. Voxel-wise volume change computation; • 7. Region-wise volume change integration; and • 8. Output for the changes for regions of interest specified for the study.

[3] = Study 1 Part 2: PK with and without a high-fat meal; conditions: 5 mg single dose
Text: Study 1 was a 2-part single-center trial in healthy adult male volunteers.
After a 7-day washout period, participants were crossed over to the other condition.

[4] = Clinical study in GD-3 patients (LEAP): Compound 2 concentrations in plasma and CSF
Text: The endpoint assessments are related to safety, CSF biomarkers, pharmacokinetics/pharmacodynamics, systemic disease, and neuroimaging and neurological function (CNS/neurological manifestations).
Patients 18 years of age or older with a clinical diagnosis of GD3 and documented deficiency of acid beta-glucosidase activity having received treatment with ERT for at least 3 years and with imiglucerase (Cerezyme) at a stable monthly dose for at least 6 months prior to enrollment were included in the study. Patients must have reached the following GD therapeutic goals: hemoglobin level of ≥11.0 g/dL for females and ≥12.0 g/dL for males; platelet count 100 000/mm^3; spleen volume <10 multiples of normal (MN), or total splenectomy (provided the splenectomy occurred ≥3 years prior to randomization); liver volume <1.5 MN; and no bone crisis and free of symptomatic bone disease such as bone pain attributable to osteonecrosis and/or pathological fractures within the last year. Patients must have GD3 featuring oculomotor apraxia (supranuclear gaze palsy) characterized by a horizontal saccade abnormality.
as §1
It is believed that this is due to either compliance or dosing errors, and therefore, analysis is repeated without Patient 5's Week 26 and 52 data included.

[5] = plasma, Day 1, N = 11, 15 mg/day + imiglucerase

For `CC(C)(NC(=O)O[C@@H]1CN2CCC1CC2)c1csc(-c2ccc(F)cc2)n1` [Compound 2, (S)-quinuclidin-3-yl 2-(2-(4-fluorophenyl)thiazol-4-yl)propan-2-ylcarbamate], the “CSF concentrations of ceramide, CHITO, or GPNMB” value ([1]; After 52 weeks of treatment, N = 6) was “no significant changes”, the “GM3 in CSF” value ([1]; four patients with measurable GM3 at baseline, at 4 weeks, 26 weeks, and 52 weeks) was “undetectable” and the “whole brain tissue volume” value ([2]; Group A, 52 weeks, FIG. 1) was “overall increase in whole brain tissue volume”. For the same compound, the “Group A mean change in volume from Baseline to Week 52” value (from here on “Group A mean change in volume”) ([2]; Left Cuneus) was “+37.16 mm^3”, the “Patient 5 change in volume from Baseline to Week 52” value (“Patient 5 change in volume” below) ([2]; Left Cuneus) was −23.9 mm^3 and the “Group A mean change in volume” value ([2]; Left Entorhinal Cortex) was “+34.53 mm^3”. For the same compound, the “Patient 5 change in volume” value ([2]; Left Entorhinal Cortex) was “+41.4 mm^3”, the “Group A mean change in volume” value ([2]; Left Lingual) was “+50.08 mm^3” and the “Patient 5 change in volume” value ([2]; Left Lingual) was −60.0 mm^3. The “Group A mean change in volume” value ([2]; Left Pericalcarine Lobe) was “+18.46 mm^3”, the “Patient 5 change in volume” value ([2]; Left Pericalcarine Lobe) was −29.2 mm^3 and the “Group A mean change in volume” value ([2]; Left Putamen) was “+94.70 mm^3”. The “Patient 5 change in volume” value ([2]; Left Putamen) was −51.7 mm^3, the whole brain volume ([2]; Patient 5 (did not successfully undergo the treatment regime), 52 weeks, FIG. 1) was “decrease in whole brain volume” and the “Group A mean change in volume” value ([2]; Right Accumbens Area) was “+12.86 mm^3”. The “Patient 5 change in volume” value ([2]; Right Accumbens Area) was −52.1 mm^3, the “Group A mean change in volume” value ([2]; Right Amygdala) was “+60.78 mm^3” and the “Patient 5 change in volume” value ([2]; Right Amygdala) was −63.4 mm^3. The “Group A mean change in volume” value ([2]; Right Postcentral Lobe) was “+91.66 mm^3”, the “Patient 5 change in volume” value ([2]; Right Postcentral Lobe) was −63.4 mm^3 and the “Group A mean change in volume” value ([2]; Right Putamen) was “+97.84 mm^3”. The “Patient 5 change in volume” value ([2]; Right Putamen) was −63.1 mm^3, the “effect of a high-fat meal on Compound 2 exposure” value ([3]; high-fat meal compared with fasting) was “no effect” and the Tmax ([3]; male, human, plasma, oral, whether fed or fasting, read-out: Median tmax) was 6 h. For the same compound, the “Concentration 2-4 hours post dose (mean ± SD)” value ([4]; CSF, Day 1, N = 6, 15 mg/day + imiglucerase) was “<LLOQ”, the “Concentration 2-4 hours post dose (mean ± SD)” value ([4]; CSF, Week 4, N = 6, 15 mg/day + imiglucerase) was 4.56 ± 1.20 ng/mL and the “Concentration 2-4 hours post dose (mean ± SD)” value ([4]; CSF, Week 4, N = 10 (Patient 5 excluded), 15 mg/day + imiglucerase) was 6.63 ± 2.42 ng/mL. For the same compound, the “Concentration 2-4 hours post dose” value ([4]; CSF, Week 4, Patient 5 Only) was 3.05 ng/mL, the “Concentration 2-4 hours post dose (mean)” value ([4]; CSF, Week 26, Excluding Patient 5, 15 mg/day + imiglucerase) was 6.13 ng/mL and the “Concentration 2-4 hours post dose (mean ± SD)” value ([4]; CSF, Week 26, N = 6, 15 mg/day + imiglucerase) was 5.26 ± 2.49 ng/mL. For the same compound, the “Concentration 2-4 hours post dose (mean ± SD)” value ([4]; CSF, Week 26, N = 8 (Patient 5 excluded), 15 mg/day + imiglucerase) was 6.77 ± 1.96 ng/mL, the “Concentration 2-4 hours post dose” value ([4]; CSF, Week 26, Patient 5 Only) was 1.77 ng/mL and the “Concentration 2-4 hours post dose (mean)” value ([4]; CSF, Week 52, Excluding Patient 5, 15 mg/day + imiglucerase) was 5.32 ng/mL. The “Concentration 2-4 hours post dose (mean ± SD)” value ([4]; CSF, Week 52, N = 6, 15 mg/day + imiglucerase) was 4.43 ± 3.23 ng/mL, the “Concentration 2-4 hours post dose (mean ± SD)” value ([4]; CSF, Week 52, N = 10 (Patient 5 excluded), 15 mg/day + imiglucerase) was 6.14 ± 3.44 ng/mL and the “Concentration 2-4 hours post dose” value ([4]; CSF, Week 52, Patient 5 Only) was “<LLOQ”. For the same compound, the “steady state concentration reached in plasma and CSF” value ([4]; GD3 patients, 15 mg/day + imiglucerase) was no more than 4 Week, the “plasma and CSF concentrations under co-treatment with CYP3A4 inducer rifampicin” value ([4]; Patient 1, 52-week measurement, rifampicin Week 39 to Week 51) was “significant drop in plasma and CSF concentrations” and the “lower concentrations of Compound 2 in plasma and CSF” value ([4]; Patient 5, Week 26 (compliance or dosing errors believed)) was “about 50%”. For the same compound, the “concentrations of Compound 2 in plasma and CSF” value ([4]; Patient 5, Week 52) was “undetectable”, the “Concentration 2-4 hours post dose (mean ± SD)” value ([4]; Plasma, Week 4, N = 10 (Patient 5 excluded), 15 mg/day + imiglucerase) was 116 ± 48.1 ng/mL and the “Concentration 2-4 hours post dose” value ([4]; Plasma, Week 4, Patient 5 Only) was 102 ng/mL. For the same compound, the “Concentration 2-4 hours post dose (mean ± SD)” value ([4]; Plasma, Week 26, N = 10 (Patient 5 excluded), 15 mg/day + imiglucerase) was 120 ± 40.1 ng/mL, the “Concentration 2-4 hours post dose” value ([4]; Plasma, Week 26, Patient 5 Only) was 53.3 ng/mL and the “Concentration 2-4 hours post dose (mean ± SD)” value ([4]; Plasma, Week 52, N = 10 (Patient 5 excluded), 15 mg/day + imiglucerase) was 114 ± 65.8 ng/mL. For the same compound, the “Concentration 2-4 hours post dose” value ([4]; Plasma, Week 52, Patient 5 Only) was “<LLOQ”, the “crossing of the blood-brain barrier” value ([4]; from plasma and CSF concentrations, N = 6, 15 mg/day + imiglucerase) was “effectively cross the blood-brain barrier in all patients” and the “Concentration 2-4 hours post dose (mean ± SD)” value ([4]; plasma, Day 1, N = 6, 15 mg/day + imiglucerase) was 39.7 ± 12.6 ng/mL. For the same compound, the “AUC0-24 (mean ± SD)” value [4, 5] was 851 ± 282 ng·h/mL, the “Cmax (mean ± SD)” value [4, 5] was 58.1 ± 26.4 ng/mL and the “Concentration 2-4 hours post dose (mean ± SD)” value ([4]; plasma, Week 4, N = 6, 15 mg/day + imiglucerase) was 92.3 ± 36.4 ng/mL. The “Concentration 2-4 hours post dose (mean)” value ([4]; plasma, Week 26, Excluding Patient 5, 15 mg/day + imiglucerase) was 112 ng/mL, the “Concentration 2-4 hours post dose (mean ± SD)” value ([4]; plasma, Week 26, N = 6, 15 mg/day + imiglucerase) was 102.0 ± 49.5 ng/mL and the “Concentration 2-4 hours post dose (mean)” value ([4]; plasma, Week 52, Excluding Patient 5, 15 mg/day + imiglucerase) was 84 ng/mL. For the same compound, the “Concentration 2-4 hours post dose (mean ± SD)” value ([4]; plasma, Week 52, N = 6, 15 mg/day + imiglucerase) was 69.8 ± 58.3 ng/mL.

Source: patent US12083115B2, “Methods for treating neurological symptoms associated with lysosomal storage diseases” (Genzyme Corporation, priority 2020, dated 2024)
